Broadly, the melting point is the temperature, or range, at which the solid turns liquid.

These results are taken from patent US9453008B2, “Antithrombotic and antiatherosclerotic agent and method for producing same (variants)” (PROTON OOO, priority 2011, dated 2016).

In data set [1] the test system is pressor effect of angiotensin I. The data set can be described thus: Pressor effect of angiotensin I after intravenous administration in normotensive narcotized rats. Format: in vivo, rat. On the procedure: (§1) The experiments were performed on spontaneously hypertensive (SHT) and normotensive (NT) narcotized male rats using intravenous administration of the tested compounds. The ability of the compound to reduce arterial blood pressure (BP) in SHT rats and prevent spasmogenic reactions to noradrenalin (NA) and angiotensin I (AI).
(§2) The effects of the compound of formula I on the pressor effects of noradrenaline (NA, 10-15 μg/kg), mesatonum (M, 5 μg/kg) and angiotensin (AI, 5 μg/kg) were studied on normotensive narcotized […]. Antihypertensive action of the compound of formula I was assessed relative to the pressor effects of the control administration of the aforementioned compounds.

The subject of data set [2] is spontaneously hypertensive (SHT) rats. The data set can be described thus: Blood pressure in narcotized SHT rats, intravenous administration. Format: in vivo, rat. On the procedure: as §1
The compound of formula I was used as a solution in 3% aqueous DMSO. Sodium nitroprusside and nitroglycerin were used as reference drugs.
The administration of the compound of formula I in dose range 0.01-0.1-0.5 and 1.0 mg/kg has exerted dose-dependent antihypertensive effect ranging in time from 30-40 s to 60 min and more.

For data set [3], the system named is pressor effect of noradrenaline. The data set can be described thus: Pressor effect of noradrenaline after intravenous administration in normotensive narcotized rats. In kind it is in vivo, rat. The protocol:
as §1, §2

A further data set relates to non-narcotized SHT rats. The data set can be described thus: Blood pressure in non-narcotized SHT rats, intragastric administration (non-invasive BP measurement). Format: in vivo, rat. Conditions: 10 mg/kg orally, 0 - absence of effect. The protocol: In experiments on non-narcotized SHT rats intragastric administration of the compound of formula I has caused dose-dependent reduction of BP, the duration of which was increased correspondingly with dose increase (maximal duration of effect 5 hours after single administration of 50 mg/kg dose, Table 3).

The mark [4] stands for this setting: higher doses (above 0.01 mg/kg) intravenous.

For the molecule `CN1CCOC1=C(C#N)C=C1Nc2ccccc2C1=O` [IX, 2-[2-Cyano-2-(3-methyloxazolidin-2-ylidene)ethylidene]indolin-3-one], the melting point is 222 to 226 °C (dec.).
As for `O=[N+]([O-])OCC(CO[N+](=O)[O-])O[N+](=O)[O-]` [Nitroglycerin, reference compound], the “Inhibition of pressor reaction (%) induced by Angiotensin I” value in data set [1] (0.5 mg/kg intravenous, 0 - absence of effect) is reported as 0%; in data set [1] (1.0 mg/kg intravenous), 25-30%. The “Duration of BP reduction” value fell in the range of 30 to 40 s in data set [2] (0.01 mg/kg dose intravenous) and 300 to 360 s in data set [2] (setting [4]). For the same molecule, the “Reduction of BP” value is on record as 10-15 mmHg in data set [2] (0.01 mg/kg dose intravenous) and 20-25 mmHg in data set [2] (setting [4]). For the same molecule, the “Reduction of BP, mmHg (Δ)” value in data set [2] (0.01 mg/kg intravenously, 10-20 s) is reported as −5 mmHg; in data set [2] (0.01 mg/kg intravenously, 5 min) it was −10 ± 3 mmHg; in data set [2] (0.01 mg/kg intravenously, 30 min) it was −3 mmHg; in data set [2] (0.1 mg/kg intravenously, 10-20 s), −7 ± 3 mmHg; in data set [2] (0.1 mg/kg intravenously, 5 min) it was −20 ± 5 mmHg; in data set [2] (0.1 mg/kg intravenously, 30 min), −5 mmHg. Moreover, the “Reduction of BP, mmHg (Δ)” value in data set [2] (0.5 mg/kg intravenously, 10-20 s) is recorded as −12 ± 3 mmHg; in data set [2] (0.5 mg/kg intravenously, 5 min), −25 ± 7 mmHg; in data set [2] (0.5 mg/kg intravenously, 30 min), −5 mmHg; in data set [2] (1.0 mg/kg intravenously, 10-20 s) it was −10 ± 3 mmHg; in data set [2] (1.0 mg/kg intravenously, 5 min), −25 ± 8 mmHg; in data set [2] (1.0 mg/kg intravenously, 30 min), −7 ± 3 mmHg. Also, the “Inhibition of pressor reaction (%) induced by Noradrenaline” value in data set [3] (0.5 mg/kg intravenous) is on record as 20-25%; in data set [3] (1.0 mg/kg intravenous) it was 40-50%. In addition, the “Reduction of BP, mmHg” value with non-narcotized SHT rats (time column 1, 1 h after dosing) was 0 mmHg; in the data set with non-narcotized SHT rats (time column 2, 2 h after dosing), 0 mmHg; in the data set on non-narcotized SHT rats (time column 3, 3 h after dosing), 0 mmHg; in the data set with non-narcotized SHT rats (time column 4, 4 h after dosing), 0 mmHg; with non-narcotized SHT rats (time column 5, 5 h after dosing) it was 0 mmHg; in the data set on non-narcotized SHT rats (time column 6, 6 h after dosing) it was 0 mmHg.
With `CN1CC(C(O)C(O)C(O)CO)OC1=C(C#N)C=C1Nc2ccccc2C1=O` (stereo not shown) (hydrate or solvate) [X, 2-[2-Cyano-2-[3-methyl-5-(1,2,3,4-tetrahydroxybutyl)oxazolidin-2-ylidene]ethylidene]indolin-3-one], the melting point was 237 °C (dec.).
